# Data as given in PubChem BioAssay AID1996.
# Conditions: buffer; pH 7.4; 200.0 µM
row,Compound,solubility kinetic
1,Clc1cccc(CN2CCSCC2)c1Cl,1 µg/mL
2,COc1ccc(C(=O)O)cc1S(=O)(=O)NCCN(C)C,44.1 µg/mL
3,O=C(NCCc1ccccc1)C1CCN(Cc2cccc3ccccc23)CC1,6.2 µg/mL
4,O=C(CN1C(=O)C(=O)N(CCC2=CCCCC2)C1=O)Nc1ccc(F)cc1F,6.5 µg/mL
5,O=C(OC(C(=O)c1c[nH]c2ccccc12)c1ccccc1)c1cnccn1 (stereo not drawn),47 µg/mL
6,Cc1nc2ccc(Cl)cc2c(=O)n1-c1ccc([N+](=O)[O-])cc1,3.7 µg/mL
7,O=C(Nc1cccc(-c2cscn2)c1)C1CCN(Cc2ccccn2)CC1,> 56.8 µg/mL
8,Cc1cc(C)nc(SCC(=O)N(C)C)n1,31.7 µg/mL
9,CCC(=O)c1cn(CC(=O)Nc2ccccc2Cl)c2ccccc12,0.8 µg/mL
10,CCc1cc2ccccc2nc1SCC(=O)NC1CCCC1,0.3 µg/mL
11,O=C(COc1ccc2c(-c3ccccc3)cc(=O)oc2c1)NC(Cc1c[nH]c2ccccc12)C(=O)O (stereo not drawn),> 72.4 µg/mL
12,CN(C)NC(=S)NC1(C)CCS(=O)(=O)C1 (stereo not drawn),> 37.7 µg/mL
13,CC(=O)c1c(C)[nH]c(=S)c(C#N)c1-c1ccc(F)cc1,> 42.9 µg/mL
14,O=c1cc(COc2ncnc3ccccc23)nc2sccn12,> 46.5 µg/mL
15,Nc1ccccc1SCC(=O)Nc1cccc2ccccc12,32.6 µg/mL
16,CCOc1cc(/C=C\c2nc(O)c([N+](=O)[O-])c(=O)[nH]2)ccc1OC(C)C,> 54.2 µg/mL
17,O=C(COC(=O)c1ccccc1Br)Nc1ccccc1F,5.4 µg/mL
18,CC12CCC(C(=O)NCc3ccccc3Cl)(OC1=O)C2(C)C (stereo not drawn),> 48.3 µg/mL
19,Cc1ccc(/C=C(\C#N)C(=O)N2CCCC2)c(C)c1,> 38.1 µg/mL
20,O=C(NCC1COc2ccccc2O1)c1cccs1 (stereo not drawn),39.7 µg/mL
21,CC(C)c1ccc(CNCCCSc2ncccn2)cc1.Cl,49.1 µg/mL
22,CCC(C(=O)NCc1ccc(C)cc1)c1ccccc1 (stereo not drawn),20.2 µg/mL
23,CCOC(=O)C(Cc1ccc(Cl)cc1Cl)c1ccno1 (stereo not drawn),11.7 µg/mL
24,CCOc1ccc(C(C)=O)cc1Cn1ccsc1=N.Cl,> 46.9 µg/mL

row,Compound,solubility kinetic
1,S=C1NCN(Cc2cccnc2)CN1,> 31.2 µg/mL
2,O=C(NCC1CCCO1)c1ccccc1NS(=O)(=O)c1cc([N+](=O)[O-])ccc1Cl (stereo not drawn),> 66 µg/mL
3,O=c1[nH]c(CSc2ccccc2)nc2c1oc1ccccc12,2.2 µg/mL
4,CN(C)CCNC(C(=O)Nc1cc(Cl)cc(Cl)c1)c1ccccc1 (stereo not drawn),> 54.9 µg/mL
5,CC(C)c1ccc(NC(=S)NNC(=O)c2cccnc2)cc1,> 47.2 µg/mL
6,CCOC(=O)c1c(NC(=O)CN2CCN(C(=O)c3ccco3)CC2)sc(C(N)=O)c1C,5.6 µg/mL
7,COc1ccccc1CNC(=O)COC(=O)c1ccccn1,> 45 µg/mL
8,Cc1ccc2c(c1)N(CC(=O)N1CCCC1)C(=O)C(C)O2 (stereo not drawn),> 43.3 µg/mL
9,Oc1ccc(N2CCN(Cc3nc4ccccc4[nH]3)CC2)cc1,> 46.3 µg/mL
10,CCOC(=O)COc1nc(-c2ccc(Cl)cc2)cc(-c2ccco2)c1C#N,< 0.4 µg/mL
11,Cc1cc(OC(=O)c2cccc(Cl)c2)c([N+](=O)[O-])c(=O)[nH]1,40.9 µg/mL
12,Cc1ccc(C(O)(CNCc2ccccc2)c2ccccc2)cc1 (stereo not drawn),26.2 µg/mL
13,O=C(NCC(=O)N1CCCC(C(F)(F)F)C1)c1ccco1 (stereo not drawn),> 45.6 µg/mL
14,COc1cc([N+](=O)[O-])ccc1NC(=O)/C=C\C(=O)O,> 39.9 µg/mL
15,Cn1ncc(Br)c1NC(=O)c1ccco1,> 40.5 µg/mL
16,CCN(c1cccc(C)c1)S(=O)(=O)c1csc(C(N)=O)c1,> 48.7 µg/mL
17,Cc1ccc(N(C)S(=O)(=O)c2cccc(C(=O)OCC(=O)c3c(N)n(C)c(=O)n(C)c3=O)c2)cc1,8.1 µg/mL
18,S=C(c1ccc(Br)cc1)N1CCCC1,> 40.5 µg/mL
19,COc1ccc(NC(=O)CN(C)C(=O)CCC2CCCC2)cc1,45.5 µg/mL
20,Cc1cc(C)c2cc(C(=O)Nc3ccc4c(c3)OCO4)[nH]c2c1,< 0.3 µg/mL
21,COc1ccc(NC(=O)CSc2ccccc2)c([N+](=O)[O-])c1,3.4 µg/mL
22,CC[C@@H]1C(=O)OC[C@@H]1Cc1cncn1C.Cl,> 36.7 µg/mL
23,CC(C)Cc1ccc(C(C)C(N)=NCCc2ccccc2)cc1.Cl (stereo not drawn),51.3 µg/mL
24,Cc1oc(-c2cccc(Br)c2)[n+]([O-])c1C,> 40.2 µg/mL

row,Compound,solubility kinetic
1,CSc1nc(=S)n(-c2cc(C)ccc2C)c(C)c1C(C)=O,> 47.8 µg/mL
2,CCOCCCn1c(=NC(C)=O)c(C#N)cc2c(=O)n3ccccc3nc21,> 54.8 µg/mL
3,O=C(COc1ccccc1F)NCCc1ccc2c(c1)OCCO2,> 49.7 µg/mL
4,O=C(NC(c1ccccc1)c1ccccc1)N1CCOCC1,> 44.5 µg/mL
5,CN(C)C(CNC(=O)C1CCCN1C(=O)c1cccs1)c1ccccc1 (stereo not drawn),> 55.7 µg/mL
6,CCS(=O)(=O)c1nc2ccccc2n1Cc1ccccn1,> 45.2 µg/mL
7,CC(=O)c1ccc([N+](=O)[O-])c(CS(=O)(=O)c2ccccc2)c1,< 0.7 µg/mL
8,CN(c1ccccc1)S(=O)(=O)c1ccc2ccccc2c1,2.4 µg/mL
9,N#CCCN(C(=O)COC(=O)c1ccc2c(c1)OCCO2)c1ccccc1,52 µg/mL
10,O=C1CCCN1Cc1ccccc1,> 26.3 µg/mL
11,Cc1ccc(NC(=O)CN(C)C(=O)Nc2ccc(C)cc2)cc1,4.9 µg/mL
12,O=C(Nc1ccc(N2CCOCC2)nc1)c1ccccc1Cl,42 µg/mL
13,COc1ccsc1NC(=O)OCc1ccc(Cl)cc1,19.3 µg/mL
14,O=C(O)C1CCN(c2ccc([N+](=O)[O-])cc2[N+](=O)[O-])CC1,> 44.3 µg/mL
15,CCOc1ccc(C2C(C#N)=C(N)Oc3nc[nH]c(=O)c32)cc1 (stereo not drawn),> 46.5 µg/mL
16,Cc1nc(Cl)c(C(=O)NCc2ccccc2)c(C)c1Cl,35.6 µg/mL
17,Cc1ccsc1C(=O)OC(C)C(=O)Nc1ccc(Cl)cn1 (stereo not drawn),28.6 µg/mL
18,O=C(OCC(=O)N1CCN(c2ccccc2)CC1)c1ccc[n+]([O-])c1,44.5 µg/mL
19,O=C1COc2ccc(C(=O)COC(=O)c3ccccc3F)cc2N1,10.1 µg/mL
20,O=C(NC1CCCCC1)C1CCCN1S(=O)(=O)c1ccc(F)cc1 (stereo not drawn),8 µg/mL
21,CC(C)N(C(=O)COC(=O)CCC(=O)c1cccs1)c1ccccc1,> 53.9 µg/mL
22,CNC(=O)c1cc(S(=O)(=O)NC2CCCCCC2)ccc1C,> 48.7 µg/mL
23,CC(C)C(NS(=O)(=O)c1ccccc1)C(=O)NC1CCCC1 (stereo not drawn),> 48.7 µg/mL
24,O=C(CCNC(=O)c1ccco1)NCc1ccc(C(=O)O)cc1,> 47.4 µg/mL

row,Compound,solubility kinetic
1,COc1cc(N)c(Cl)cc1C(=O)OCC(=O)NC1CCCC1,> 49 µg/mL
2,CC(CO)NCC12CC3CC(CC(C3)C1)C2.Cl (stereo not drawn),> 39 µg/mL
3,Cc1ccc(C(=O)Oc2ccc(N3C(=O)CCC3=O)c(C)c2)cc1,< 0.7 µg/mL
4,O=C(O)CCSC1CC(=O)N(c2ccccc2)C1=O (stereo not drawn),> 41.9 µg/mL
5,CC(C)(C)c1ccc(CSc2nc(N)cc(=O)[nH]2)cc1,6.4 µg/mL
6,COc1ccc(S(=O)(=O)n2cccc2)cc1,4.2 µg/mL
7,O=C(NCc1ccccc1C(F)(F)F)C1CCC(=O)N(C2CC2)C1 (stereo not drawn),> 51.1 µg/mL
8,O=C1c2cccc3cccc(c23)C(=O)N1c1ccccc1Cl,0.8 µg/mL
9,CC1CCC2(CC1)NC(=O)N(CC(=O)N1CCOCC1)C2=O (stereo not drawn),> 46.4 µg/mL
10,COc1ccc(/C=C/C(=O)Nc2ccccc2F)cc1S(=O)(=O)N1CCOCC1,37.5 µg/mL
11,CCCCOc1ccc(CN2CCSCC2)cc1,14.1 µg/mL
12,Cc1ccccc1NC(=O)c1ccc(S(=O)(=O)N2CCCC2)cc1,> 51.7 µg/mL
13,COc1ccccc1CN(C)C(=O)CNC(=O)c1cccc(Cl)c1,50.8 µg/mL
14,CNc1nc(-c2cccs2)cc(C(F)(F)F)c1C#N,< 0.2 µg/mL
15,COc1ccccc1N1CCN(CC(=O)NCc2ccc(Cl)cc2)CC1,> 56.1 µg/mL
16,Cc1nn(CC(=O)N2CCc3ccccc3C2)c(C)c1[N+](=O)[O-],> 47.2 µg/mL
17,CCN(CC)C(=O)Oc1ccc(Cl)c2cccnc12,40.7 µg/mL
18,CCNC(=S)NCCC1=c2ccccc2=N/C1=C\c1c(O)n(C)c(=O)n(C)c1=O,19.3 µg/mL
19,Cc1ccc(Nc2nnc(SC(C)C(=O)NCC3CCCO3)s2)cc1 (stereo not drawn),> 56.8 µg/mL
20,CCN(C(=O)c1cccs1)C1CCS(=O)(=O)C1 (stereo not drawn),> 41 µg/mL
21,O=C(O)[C@H](Cc1c[nH]c2ccccc12)Nc1ncccc1[N+](=O)[O-],> 48.9 µg/mL
22,CC1(C)Cc2ccccc2/C(=C/C(=O)c2ccccc2)N1,< 0.6 µg/mL
23,Nc1cc(Cl)ccc1C(=O)OCC(=O)NCc1cccs1,7.7 µg/mL
24,CCC1CCC/C1=N\NC(=O)c1ccoc1C (stereo not drawn),> 35.1 µg/mL

row,Compound,solubility kinetic
1,O=C(NCc1ccccc1)c1ccc2ccccc2n1,26.3 µg/mL
2,COc1ccccc1N1CCN(C(=S)NC(=O)/C=C/c2ccccc2)CC1,1.3 µg/mL
3,Cc1csc(NC(=O)CSc2ccc([N+](=O)[O-])cn2)n1,33.8 µg/mL
4,Cc1ccc(C(=O)Nc2ccc3ccccc3c2)cc1,< 0.6 µg/mL
5,Cc1ccc(C(=O)O/N=C2/CC3CCC2(C)[C@@]3(C)CBr)cc1 (stereo partly drawn),< 0.8 µg/mL
6,Cc1cc(SCc2ccc(C(F)(F)F)cc2)nc(=O)[nH]1,7.5 µg/mL
7,Cc1ccc(OCC(=O)O/N=C(\N)c2ccccn2)cc1,> 42.8 µg/mL
8,Cc1c(NC(=O)CN2CCCC(C)C2)ccc2nsnc12 (stereo not drawn),42.6 µg/mL
9,Cc1cc(C)nc(N2CCN(c3ccc(F)cc3)CC2)n1,2.1 µg/mL
10,COc1cccc(C(=O)NNC(=O)CCC(=O)O)c1,> 39.9 µg/mL
11,COc1ccc(Oc2ccc(C(F)(F)F)cc2NC(=O)c2ccc(F)cc2)cc1,< 0.9 µg/mL
12,CCn1cnc2c(oc3ccccc32)c1=O,31.9 µg/mL
13,Nc1cccc(Oc2ccc3c(c2)C(=O)NC3=O)c1,36.6 µg/mL
14,Cc1ccccc1OCC(=O)Nc1ccccc1NC(=O)c1ccco1,36.7 µg/mL
15,O=C(NC1CCCC1)c1cccc(Cl)c1,32.6 µg/mL
16,COc1ccc2nc(NCc3cccnc3)sc2c1,> 40.7 µg/mL
17,COc1ccc(NC(=O)/C=C/C(=O)O)c(OC)c1,37 µg/mL
18,CC(=O)OCc1ccccc1Sc1ccccc1C(=O)NCc1ccccc1,21.1 µg/mL
19,O=S(=O)(c1ccc(Cl)cc1)N1CCN(Cc2cccnc2)CC1,49.4 µg/mL
20,COc1ccc(Cc2c(O)nc(SCC(=O)N3CCOCC3)[nH]c2=O)cc1,> 58.7 µg/mL
21,CN(CC(=O)Nc1ccc(Cl)cc1F)C1=NS(=O)(=O)c2ccccc21,7.8 µg/mL
22,COc1cc2c(cc1OC)/C(=C/C(=O)c1cccc([N+](=O)[O-])c1)NCC2,0.5 µg/mL
